One assay deals with HT-29. Description: Cytotoxic effect on human colon carcinoma HT-29 cell line. The following applies: read-out: ID50 (the source's name). It is filed as functional.
The target of assay [1] is Tyrosine-protein kinase Lck (Homo sapiens, UniProt P06239). Description: Inhibition of lck catalytic domain expressed in baculovirus.

pIC50: −log10 of the molar value.

Chain of Tyrosine-protein kinase Lck (P06239 whole entry, the tested form may be a part): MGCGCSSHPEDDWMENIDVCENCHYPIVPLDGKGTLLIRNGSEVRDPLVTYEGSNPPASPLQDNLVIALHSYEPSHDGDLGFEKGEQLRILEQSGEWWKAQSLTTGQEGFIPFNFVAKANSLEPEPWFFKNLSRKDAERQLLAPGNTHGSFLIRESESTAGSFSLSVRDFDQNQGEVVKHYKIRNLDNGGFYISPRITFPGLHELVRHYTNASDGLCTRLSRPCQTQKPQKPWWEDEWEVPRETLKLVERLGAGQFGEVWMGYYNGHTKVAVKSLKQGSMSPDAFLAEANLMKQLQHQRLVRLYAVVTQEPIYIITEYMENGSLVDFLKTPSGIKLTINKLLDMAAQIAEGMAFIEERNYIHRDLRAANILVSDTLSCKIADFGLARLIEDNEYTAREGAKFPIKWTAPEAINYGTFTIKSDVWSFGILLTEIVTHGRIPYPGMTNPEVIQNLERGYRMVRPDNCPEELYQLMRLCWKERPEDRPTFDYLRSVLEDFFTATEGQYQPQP

As for `N#CCCN(CCC#N)CCCN(CCCN(CCC#N)CCC#N)CCCN(CCN)CCCN(CCCN(CCC#N)CCC#N)CCCN(CCC#N)CCC#N`, the pIC50 with HT-29 is under 4.00.
On the same count and under the same terms, for `NCCCN(CCCN)CCCN(CCCN(CCCN)CCCN)CCCN(CCCN(CCCN(CCCN)CCCN)CCCN(CCCN)CCCN)CCN1C(=O)c2cccc3cccc(c23)C1=O` the value was 4.36.
Take `N#CCCN(CCC#N)CCCN(CCCN(CCC#N)CCC#N)CCCN(CCCN(CCCN(CCC#N)CCC#N)CCCN(CCC#N)CCC#N)CCN1C(=O)c2cccc3cccc(c23)C1=O`: the figures for the pIC50 (in the assay on HT-29; in assay [1]) were under 4.00 and under 4.30, respectively.
With `N#CCCN(CCC#N)CCCN(CCCN(CCC#N)CCC#N)CCCN(CCCN(CCCN(CCC#N)CCC#N)CCCN(CCC#N)CCC#N)CCN1C(=O)c2cccc3cc(N)cc(c23)C1=O`, the pIC50 in the assay with HT-29 is under 4.00.
For the compound `N#CCCN(CCC#N)CCCN(CCCN(CCC#N)CCC#N)CCCN(CCCN(CCCN(CCC#N)CCC#N)CCCN(CCC#N)CCC#N)CCN1C(=O)c2cccc3cc([N+](=O)[O-])cc(c23)C1=O`, the pIC50 in the assay on HT-29 was under 4.00.
Regarding `N#CCCN(CCC#N)CCCN(CCCN(CCC#N)CCC#N)CCCN(CCCN(CCCN(CCC#N)CCC#N)CCCN(CCC#N)CCC#N)CCN1C(=O)C(c2ccccc2)=C(c2ccccc2)C1=O`, the pIC50 is 4.24 in the assay with HT-29 and under 4.30 in assay [1].
As to `NCCCN(CCCN)CCCN(CCCN(CCCN)CCCN)CCCN(CCCN(CCCN(CCCN)CCCN)CCCN(CCCN)CCCN)CCN1C(=O)C(c2ccccc2)=C(c2ccccc2)C1=O`, the pIC50 with HT-29 was 4.00.
Consider `CN(C)CCN1C(=O)c2cccc3cc(N)cc(c23)C1=O` [AMONAFIDE], for which, in the assay on HT-29, the pIC50 was 4.42.
Still for that read-out and setting: the figure for `O=C1c2cccc3cccc(c23)C(=O)N1CCNCCCNCCN1C(=O)c2cccc3cccc(c23)C1=O` [ELINAFIDE] is 7.85.

The values are drawn from ChEMBL document CHEMBL1134820, “Synthesis of antitumor dendritic imides” (Bioorg Med Chem Lett, 2001).
